Tests used:
[1] = Metabolic stability in monkey liver microsome assessed as half-life at 1 uM preincubated for 5 mins followed by NADPH addition and measured upto 60 mins by LC-MS/MS analysis; assay type: ADME, Macaca mulatta; conditions: rhesus monkey, liver microsomes, time < 65 min
in vitro [2] = conditions: rat, liver microsomes
in vitro [3] = conditions: mouse, liver microsomes
[4] = Volume of distribution at steady state in rat at 3 mg/kg, po or 1 mg/kg, iv; assay type: ADME, organism-based; conditions: in vivo
[5] = Metabolic stability in dog liver microsome assessed as half-life at 1 uM preincubated for 5 mins followed by NADPH addition and measured upto 60 mins by LC-MS/MS analysis; assay type: ADME, Canis lupus familiaris; conditions: liver microsomes, time < 65 min
in vitro [6] = conditions: human, liver microsomes
[7] = Oral bioavailability in rat at 3 mg/kg; assay type: ADME, organism-based; conditions: in vivo
in vitro [8] = conditions: human, Caco-2
[9] = Half-life in rat at 3 mg/kg, po or 1 mg/kg, iv; assay type: ADME, organism-based; conditions: in vivo
in vitro [10] = conditions: human, Caco-2; remark: listed apart in the source
[11] = AUC in rat at 3 mg/kg, po or 1 mg/kg, iv; assay type: ADME, organism-based; conditions: in vivo
[12] = Cmax in rat at 3 mg/kg, po or 1 mg/kg, iv; assay type: ADME, organism-based; conditions: in vivo

CN1Cc2cc3c(cc2C1)C(=O)N(C1CCC(=O)NC1=O)C3=O (centres undefined)
half-life at 1 µM [1]: 0.9 h | half-life at 1 h, 1 µM (in vitro [2]): > 1 h | half-life at 1 h, 1 µM (in vitro [3]): > 1 h | Vdss [4]: 5 L/kg | half-life at 1 µM [5]: > 1 h | half-life at 1 h, 1 µM (in vitro [6]): > 1 h | bioavailability [7]: 70%

CN1Cc2cc3c(cc2C1)C(=O)N(C1CCC(=O)NC1=O)C3 (centres undefined)
half-life at 1 µM [1]: > 1 h | Papp A→B at 2 h, 10 µM (in vitro [8]): 2.55 ×10⁻⁶ cm/s | half-life [9]: 2.2 h | half-life at 1 h, 1 µM (in vitro [2]): > 1 h | Papp B→A at 2 h, 10 µM (in vitro [10]): 6.8 ×10⁻⁶ cm/s | half-life at 1 h, 1 µM (in vitro [3]): > 1 h | Vdss [4]: 2.9 L/kg | AUC [11]: 1500 ng·h/mL | half-life at 1 µM [5]: > 1 h | Cmax [12]: 276 ng/mL | half-life at 1 h, 1 µM (in vitro [6]): > 1 h | bioavailability [7]: 60%
